US9920069B2, “Compounds for treatment of fluoroquinolone-resistant bacteria” (The Board of Trustees of the University of Illinois, priority 2014, dated 2018)
≈ marks a conversion by molar mass, not a printed value. Entries after “also recorded” stand apart in the source; their conditions may differ. Like-named read-outs stand apart in the source and are kept apart here.

Assays:
[1] = system: MRSA clinical isolate SAU.846; assay: MIC, microdilution broth; format: cell-based, S. aureus; details: Staphylococcus aureus, MRSA, read-out: MIC
Experimental: (§1) Susceptibility testing was performed in triplicate using the microdilution broth method as outlined by the Clinical and Laboratory Standards Institute CLSI^52. MH broth was used.

[2] = system: VRE with the S83R mutation (GyrA); assay: microbe, parasite or virus in culture; format: cell-based; details: Enterococcus
[3] = system: S. aureus ATCC 29213 derived strains; assay: Resistant mutant generation (resistance frequency); details: development of DNM resistance in high level CIP resistant strains
Experimental: Agar plates (15 cm) were prepared containing MH broth and antibacterial compounds at concentrations detailed in the FIG. 10. 40 mL of an overnight bacterial culture was centrifuged at 3000×g for 10 min and resuspended in 0.4 mL of sterile PBS. Plates were inoculated with 100 μL of bacteria in PBS by spreading with beads. […] To determine the number of viable colonies spread onto each plate, dilutions of the overnight culture in sterile PBS were spread onto nonselective MH agar plates and plates were incubated overnight at 37° C. before counting colonies.

[4] = system: normal (i.e. non-cancerous) cell lines; details: cited from earlier work
[5] = Pharmacokinetic assessment, serum by HPLC; format: in vivo, C57BL/6 mice; details: mouse serum
Experimental: FIG. 13. Pharmacokinetic analysis of DNM, DNM-2, and DNM-3. C57/BL6 mice were treated with 50 mg kg^−1 DNM, DNM-2, or DNM-3 via oral gavage. After the indicated time points (15, 30, 60, 120, 240, and 480 min), mice were sacrificed and the serum concentrations of DNM, DNM-2, and DNM-3 was determined by HPLC.
The animal studies (PK, in vivo toxicity and in vivo efficacy) were carried out in strict accordance with the recommendations in the Guide for the Care and Use of Laboratory Animals of the National Institutes of Health. […] In these studies, 10-12 week old female C57BL/6 mice purchased from Charles River were used. DNM, DNM-2, and DNM-3 were formulated as slurries at 8.3 mg mL^−1 in 25% Cremophor RH40/water (v/v). Before beginning the pharmacokinetic assessment, mice were first tested for their ability to tolerate the DNM, DNM-2, and DNM-3 at 50 mg kg^−1 (p.o.). […] At specified time points, mice were sacrificed and blood was collected, centrifuged, and the serum was frozen at −80° C. until analysis. The proteins in a 50 μL aliquot of serum were precipitated by the addition of 50 μL of acetonitrile and the sample was centrifuged to remove the proteins. Serum concentrations of DNM, DNM-2, and DNM-3 were determined by HPLC. PK parameters were determined using GraphPad Prism Version 5.00 for Windows.

[6] = system: VRE clinical isolate S234; assay: organism not typed; format: cell-based, E. faecalis; details: read-out: MIC
[7] = system: VRE clinical isolate S557; assay: organism not typed; format: cell-based, E. faecium; details: read-out: MIC
[8] = system: MRSA clinical isolate SAU.3024; assay: MIC, microdilution broth; format: cell-based, S. aureus; details: Staphylococcus aureus
Experimental: as §1

FQR MRSA (NRS3) = assay: Mouse sepsis model, survival; details: 50 mg kg^−1 oral gavage once-a-day 10 days; vs CIP and vehicle, P<0.005

Compound | MIC [1] [µg/mL] | MIC [2] [µg/mL] | resistance frequency [3] | toxicity to normal cell lines [4] | AUC ([5]; 50 mg kg^−1 oral dose) [µg·h/mL] | Cmax / peak serum concentration ([5]; 50 mg kg^−1 oral dose) [µg/mL] | Cmax ([5]; 50 mg kg^−1 oral dose, read-out: Cmax / peak serum concentration) [µM] | AUC ([5]; 50 mg kg^−1 oral gavage) [µg·h/mL] | Cmax ([5]; 50 mg kg^−1 oral gavage) [ng/mL] | Tmax ([5]; 50 mg kg^−1 oral gavage) [h] | t1/2 ([5]; 50 mg kg^−1 oral gavage) [min] | MIC [6] [µg/mL] | MIC [7] [µg/mL] | MIC [8] [µg/mL] | survival of mice infected with FQR MRSA (NRS3) (FQR MRSA (NRS3))
Cc1cc(=O)n(C)c2c3c4c(cc12)c(C)cc(=O)n4CO3 [DNM, deoxynybomycin] | 0.031 (≈ 0.11 µM) | ≥ 1 | 1×10^−10 to 7×10^−10 | non-toxic |  |  |  |  |  |  |  |  |  |  | 
CCn1c(=O)cc(C)c2cc3c(C)cc(=O)n4c3c(c21)OC4 [DNM-2] |  |  |  |  | 44 | 12.8 | 42.6 | 44 | 12800 | 1.2 | 54 | 0.25 (≈ 0.844 µM) | 0.25 (≈ 0.844 µM) | 0.125 (≈ 0.422 µM) | significant survival difference; also recorded: effective
